Experimental data taken from PubChem BioAssay (NCI).
“And” between values parts separate entries of the source, which are not always exact repeats. Equal values may be shown once.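 Step 1: Grow cells in 96-well plates. Step 2: Expose to compound for 48 hours at 5 concentrations. Step 3: Interpolate endpoints linearly; if unreached, use highest concentration. At the GI50, growth is halved. TGI: concentration producing complete growth inhibition.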

Legend:
Assay in all cases: NCI-60 cell line screen, 48 h
SW-620 colon = tested on: SW-620 colon
HCT-15 colon = tested on: HCT-15 colon
A549 NSCLC = tested on: A549 NSCLC
SF-295 CNS = tested on: SF-295 CNS
SK-OV-3 ovarian = tested on: SK-OV-3 ovarian
DMS 114 small cell lung = tested on: DMS 114 small cell lung
OVCAR-4 ovarian = tested on: OVCAR-4 ovarian
HOP-18 NSCLC = tested on: HOP-18 NSCLC
MDA-MB-231 breast = tested on: MDA-MB-231 breast
HS 578T breast = tested on: HS 578T breast

Row | SMILES | GI50 (SW-620 colon) [µM] | TGI (SW-620 colon) | GI50 (HCT-15 colon) | TGI (HCT-15 colon) | GI50 (A549 NSCLC) | TGI (A549 NSCLC) | GI50 (SF-295 CNS) | TGI (SF-295 CNS) | GI50 (SK-OV-3 ovarian) | TGI (SK-OV-3 ovarian) | GI50 (DMS 114 small cell lung) [µM] | TGI (DMS 114 small cell lung) [µM] | GI50 (OVCAR-4 ovarian) | TGI (OVCAR-4 ovarian) | GI50 (HOP-18 NSCLC) | TGI (HOP-18 NSCLC) [µM] | GI50 (MDA-MB-231 breast) | TGI (MDA-MB-231 breast) | GI50 (HS 578T breast) | TGI (HS 578T breast)
1 | Cc1[cH-]c(=O)n(-c2ccccc2)n1.[Au+].[Au].c1ccc([PH+](c2ccccc2)c2ccccc2)cc1.c1ccc([PH+](c2ccccc2)c2ccccc2)cc1 | 26.9 | 81.4 µM | 11.8 µM | 29.3 µM | 46.8 µM | > 100 µM | 15.1 µM | 35.2 µM | 40.4 µM | > 100 µM | 2.81 | 11.6 | 32.2 µM | > 100 µM | 4.06 µM and 10.3 µM | 27 | – | – | – | –
2 | CN1C(=O)C(=O)N2c3ccc(Cl)cc3C3(c4ccccc4)N=CC12O3 (stereo unspecified) | – | 14.5 µM | – | 13.3 µM | – | 23.1 µM | – | 23.2 µM | – | 21.7 µM | – | 11.6 | – | 8.43 µM | – | 34.6 | – | – | – | –
3 | O=c1[nH]c(-c2ccccc2)nc2cc(Cl)ccc12 | – | > 100 µM | – | > 100 µM | – | > 100 µM | – | > 100 µM | – | > 100 µM | – | > 100 | – | > 100 µM | – | – | – | – | – | –
4 | N#CC(C(=O)CCC(=O)Nc1ccc(Cl)c(Cl)c1)c1ccccc1 (stereo unspecified) | – | > 100 µM | – | > 100 µM | – | > 100 µM | – | > 100 µM | – | – | – | > 100 | – | > 100 µM | – | > 100 | – | – | – | –
5 | CCCOc1nc(N)c2cnn(C3CCCCO3)c2n1 (stereo unspecified) | – | > 100 µM | – | > 100 µM | – | > 100 µM | – | > 100 µM | – | > 100 µM | – | > 100 | – | > 100 µM | – | > 100 | – | – | – | –
6 | O=C(NC1C=CCC2C(=O)N(c3ccccc3)C(=O)C12)OCc1ccccc1 (stereo unspecified) | – | > 100 µM | – | – | – | > 100 µM | – | > 100 µM | – | > 100 µM | – | – | – | > 100 µM | – | > 100 | – | – | – | –
7 | O=C1C(C(Nc2ccccc2)c2ccccc2)=C([O-])c2ccccc21.O=C1C(C(Nc2ccccc2)c2ccccc2)=C([O-])c2ccccc21.[Cu+2] (stereo unspecified) | 42.6 | > 100 µM | 52.4 µM | > 100 µM | 27.2 µM | > 100 µM | 48.2 µM | > 100 µM | 8.38 µM | 63 µM | – | – | – | – | > 100 µM | > 100 | – | – | – | –
8 | CN(C)CC1CCC/C1=N/OC(=O)c1ccccc1 (stereo unspecified) | – | > 100 µM | – | > 100 µM | – | – | – | > 100 µM | – | > 100 µM | – | > 100 | – | > 100 µM | – | > 100 | – | – | – | –
9 | CC1(C)CC(c2c[nH]c3ccccc23)=CC2=Nc3ccccc3C21O (stereo unspecified) | – | > 100 µM | – | > 100 µM | – | > 100 µM | – | > 100 µM | – | > 100 µM | – | > 100 | – | > 100 µM | – | – | – | – | – | –
10 | O=S1C(=c2ccc(=C3Sc4ccccc4S3)cc2)Sc2ccccc21 (stereo unspecified) | – | > 100 µM | – | 28.9 µM | – | 35.5 µM | – | 31.2 µM | – | 37 µM | – | > 56.4 | – | > 100 µM | – | > 100 | – | – | – | –
11 | [O-][Cl+3]([O-])([O-])[O-].[O]=[Ru]=[O].c1ccc(-c2ccccn2)nc1.c1ccc(-c2ccccn2)nc1 | > 100 | > 100 µM | > 100 µM | > 100 µM | > 100 µM | > 100 µM | 60.2 µM | > 100 µM | > 100 µM | > 100 µM | 21.9 | 61.2 | > 100 µM | > 100 µM | > 100 µM | > 100 | – | – | – | –
12 | O=c1c2cccnc2ncn1CCN1CCCCC1 | – | > 100 µM | – | – | – | > 100 µM | – | > 100 µM | – | > 100 µM | – | > 100 | – | > 100 µM | – | – | – | – | – | –
13 | CN(C)C=Nc1nc(=O)n(C2CCC(CO)O2)cc1F (stereo unspecified) | – | > 100 µM | – | > 100 µM | – | > 100 µM | – | > 100 µM | – | > 100 µM | – | – | – | > 100 µM | – | > 100 | – | – | – | –
14 | COc1ccc2c(c1)[n+]([O-])c(C(N)=O)c(N)[n+]2[O-] | – | > 100 µM | – | > 100 µM | – | > 100 µM | – | > 100 µM | – | > 100 µM | – | 98.8 | – | > 100 µM | – | > 100 | – | – | – | –
15 | CCOC(=O)C1=C(C)N(NC(=O)Nc2ccccc2)C2(N)N(NC(=O)Nc3ccccc3)C(C)=C(C(=O)OCC)C12C(=O)OCC (stereo unspecified) | – | > 100 µM | – | > 100 µM | – | > 100 µM | – | > 100 µM | – | > 100 µM | – | > 100 | – | > 100 µM | – | 54.6 | – | – | – | –
16 | C/C(CN1C(=O)c2ccccc2C1=O)=N\NS(=O)(=O)c1ccc(Cl)cc1 | – | > 100 µM | – | > 100 µM | – | > 100 µM | – | > 100 µM | – | – | – | – | – | > 100 µM | – | > 100 | – | – | – | –
17 | COc1ccc(/C=C/COC(C)=O)cc1OC | – | > 100 µM | – | > 100 µM | – | > 100 µM | – | > 100 µM | – | > 100 µM | – | > 100 | – | > 100 µM | – | – | – | – | – | –
18 | O=C(Nc1nn2c(-c3cc(C(F)(F)F)cc(C(F)(F)F)c3)nnc2s1)C1CCCC1 | 1.74 | > 100 µM | 0.665 µM | > 100 µM | 1.08 µM | > 100 µM | 0.286 µM | 2.01 µM | 1.76 µM | 45.8 µM | – | – | 0.748 µM | > 37.9 µM | – | – | 1.12 µM | 4.01 µM | 0.706 µM | > 100 µM
19 | CCNC(=O)C#Cc1ccc2c(C(=Nc3ccc(CN(C)C)cc3)c3ccccc3)c(O)[nH]c2c1 | 0.0156 | 1.54 µM | 0.392 µM | 4.62 µM | 0.0401 µM | > 5.34 µM | 0.249 µM | 3.31 µM | 1.86 µM | > 10 µM | – | – | 0.61 µM | 7.63 µM | – | – | 0.0295 µM | 0.502 µM | 0.291 µM | 1.66 µM
20 | NC(N)=NS(=O)(=O)c1ccc(N=Nc2c(O)c(C(=O)O)cc3ccccc23)cc1 | – | > 100 µM | – | > 100 µM | – | > 100 µM | – | > 100 µM | – | > 100 µM | – | – | – | > 100 µM | – | – | – | > 100 µM | – | > 100 µM
21 | C=CC(=O)Nc1cc(Nc2nccc(-c3cn(C)c4ccccc34)n2)c(OC)cc1N(C)CCN(C)C | 1.83 | 3.76 µM and 4.43 µM | 1.61 µM and 1.42 µM | 3.69 µM and 3.27 µM | 1.4 µM and 1.29 µM | 4.17 µM and 3.87 µM | 2.76 µM and 2.02 µM | 8.31 µM and 4.61 µM | 0.0501 µM and 0.0311 µM | 18.1 µM and > 10 µM | – | – | 2.74 µM and 2.42 µM | 20.5 µM and > 10 µM | – | – | 1.59 µM and 1.7 µM | 3.45 µM and 3.6 µM | 3.32 µM and 1.89 µM | 16 µM and 9.69 µM
22 | Cc1nnc2ccnn2c1C | > 100 | > 100 µM | > 100 µM | > 100 µM | > 100 µM | > 100 µM | > 100 µM | > 100 µM | > 100 µM | > 100 µM | – | – | > 100 µM | > 100 µM | – | – | > 100 µM | > 100 µM | > 100 µM | > 100 µM
